Experimental data taken from patent US20150005281A1, “PYRIMIDINE-2,4-DIAMINE DERIVATIVES AS KINASE INHIBITORS” (Cellzome Limited, priority 2011, published 2015).
Structures can show the parent of a compound that is named as a salt.

Experiments:
Format in all cases: binding
[1] = target: T1, TYK2 (Homo sapiens, UniProt P29597); assay: Kinobeads assay with immunodetection, TYK2; conditions: for IC50: Kinobeads assay, mixed Molt4/Ramos lysate, read-out: Inhibition values (IC50) Tyk2
T1 construct: endogenous in cells; host or cells: Molt4 (ATCC CRL-1582) and Ramos (ATCC CRL-1596) cells; mixed lysate 1:2
T1 sequence (P29597 whole entry): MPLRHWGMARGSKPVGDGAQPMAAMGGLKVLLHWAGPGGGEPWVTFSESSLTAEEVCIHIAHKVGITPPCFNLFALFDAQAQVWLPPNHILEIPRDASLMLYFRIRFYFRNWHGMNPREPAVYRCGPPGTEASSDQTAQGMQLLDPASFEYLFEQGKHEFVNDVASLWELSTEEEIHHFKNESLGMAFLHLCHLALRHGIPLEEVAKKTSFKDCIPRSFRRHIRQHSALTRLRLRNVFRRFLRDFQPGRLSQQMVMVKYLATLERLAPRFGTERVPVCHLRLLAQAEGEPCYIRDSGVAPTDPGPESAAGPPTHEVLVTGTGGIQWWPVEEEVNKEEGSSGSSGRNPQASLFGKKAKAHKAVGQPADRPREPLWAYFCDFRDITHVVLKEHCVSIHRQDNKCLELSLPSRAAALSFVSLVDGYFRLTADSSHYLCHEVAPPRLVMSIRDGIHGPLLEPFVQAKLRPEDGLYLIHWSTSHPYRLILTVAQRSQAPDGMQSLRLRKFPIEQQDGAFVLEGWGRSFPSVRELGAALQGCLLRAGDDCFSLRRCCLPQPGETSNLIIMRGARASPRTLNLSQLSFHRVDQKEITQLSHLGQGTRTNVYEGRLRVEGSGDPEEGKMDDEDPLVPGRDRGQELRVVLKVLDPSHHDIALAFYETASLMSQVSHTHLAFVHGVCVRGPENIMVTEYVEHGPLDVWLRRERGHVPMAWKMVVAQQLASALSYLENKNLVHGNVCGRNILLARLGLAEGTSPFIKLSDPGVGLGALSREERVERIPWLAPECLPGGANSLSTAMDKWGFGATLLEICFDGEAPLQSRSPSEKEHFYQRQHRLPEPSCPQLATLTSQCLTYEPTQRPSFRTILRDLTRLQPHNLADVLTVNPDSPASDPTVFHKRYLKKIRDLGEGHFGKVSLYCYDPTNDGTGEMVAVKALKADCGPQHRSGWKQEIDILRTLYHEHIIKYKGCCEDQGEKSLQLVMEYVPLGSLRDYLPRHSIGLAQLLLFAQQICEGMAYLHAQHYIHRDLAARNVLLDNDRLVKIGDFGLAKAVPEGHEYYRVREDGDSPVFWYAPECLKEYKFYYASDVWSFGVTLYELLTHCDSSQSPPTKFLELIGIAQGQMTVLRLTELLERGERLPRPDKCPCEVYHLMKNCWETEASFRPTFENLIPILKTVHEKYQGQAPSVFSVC
In short: (§1)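 Lysates of Molt4 and Ramos cells, combined 1:2 and diluted to 10 mg/mL in Tris pH 7.4 buffer with 0.8% NP40, are incubated for 3 h in the cold with compound and the affinity matrix. Beads are washed, eluted in SDS buffer, and kinases are quantified by infrared immunodetection to give IC50s.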

[2] = target: T2, JAK3 (Homo sapiens, UniProt P52333); assay: Kinobeads assay with immunodetection, JAK3; conditions: for IC50: Kinobeads assay, mixed Molt4/Ramos lysate, read-out: Inhibition values (IC50) JAK3
T2 construct: endogenous in cells; host or cells: Molt4 (ATCC CRL-1582) and Ramos (ATCC CRL-1596) cells; mixed lysate 1:2
T2 sequence (P52333 1-1124): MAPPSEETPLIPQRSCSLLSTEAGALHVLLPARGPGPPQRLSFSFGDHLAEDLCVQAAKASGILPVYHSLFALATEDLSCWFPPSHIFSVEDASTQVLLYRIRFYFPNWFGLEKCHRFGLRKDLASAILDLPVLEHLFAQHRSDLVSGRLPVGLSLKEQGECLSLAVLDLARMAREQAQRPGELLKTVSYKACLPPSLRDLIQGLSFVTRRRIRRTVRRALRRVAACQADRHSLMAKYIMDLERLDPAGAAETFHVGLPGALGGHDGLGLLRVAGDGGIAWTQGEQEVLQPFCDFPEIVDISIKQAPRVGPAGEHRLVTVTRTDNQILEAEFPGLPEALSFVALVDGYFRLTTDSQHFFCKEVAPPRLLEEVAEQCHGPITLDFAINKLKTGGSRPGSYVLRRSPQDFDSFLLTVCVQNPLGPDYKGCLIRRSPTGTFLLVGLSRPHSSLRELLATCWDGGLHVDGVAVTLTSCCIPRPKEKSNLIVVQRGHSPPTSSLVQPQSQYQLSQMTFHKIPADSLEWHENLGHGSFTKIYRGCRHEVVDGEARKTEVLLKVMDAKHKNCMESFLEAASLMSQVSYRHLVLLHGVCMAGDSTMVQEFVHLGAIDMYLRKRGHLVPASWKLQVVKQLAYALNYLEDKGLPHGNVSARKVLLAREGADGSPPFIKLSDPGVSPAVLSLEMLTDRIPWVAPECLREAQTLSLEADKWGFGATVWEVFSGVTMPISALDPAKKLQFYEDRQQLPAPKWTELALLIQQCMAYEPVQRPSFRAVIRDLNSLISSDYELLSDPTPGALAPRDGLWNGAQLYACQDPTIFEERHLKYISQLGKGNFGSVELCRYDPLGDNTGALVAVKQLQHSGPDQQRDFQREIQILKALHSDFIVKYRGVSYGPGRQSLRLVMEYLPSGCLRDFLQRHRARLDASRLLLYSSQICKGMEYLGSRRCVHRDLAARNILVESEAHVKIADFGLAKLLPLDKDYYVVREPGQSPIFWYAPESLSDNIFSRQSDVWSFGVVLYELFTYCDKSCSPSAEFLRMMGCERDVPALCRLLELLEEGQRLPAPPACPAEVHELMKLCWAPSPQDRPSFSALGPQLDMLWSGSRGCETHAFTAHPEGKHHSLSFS
In short: as §1

[3] = target: T3, JAK2 (Homo sapiens, UniProt O60674); assay: Kinobeads assay with immunodetection, JAK2; conditions: mixed Molt4/Ramos lysate, read-out: Inhibition values (IC50) JAK2
T3 construct: endogenous in cells; host or cells: Molt4 (ATCC CRL-1582) and Ramos (ATCC CRL-1596) cells; mixed lysate 1:2
T3 sequence (O60674 whole entry): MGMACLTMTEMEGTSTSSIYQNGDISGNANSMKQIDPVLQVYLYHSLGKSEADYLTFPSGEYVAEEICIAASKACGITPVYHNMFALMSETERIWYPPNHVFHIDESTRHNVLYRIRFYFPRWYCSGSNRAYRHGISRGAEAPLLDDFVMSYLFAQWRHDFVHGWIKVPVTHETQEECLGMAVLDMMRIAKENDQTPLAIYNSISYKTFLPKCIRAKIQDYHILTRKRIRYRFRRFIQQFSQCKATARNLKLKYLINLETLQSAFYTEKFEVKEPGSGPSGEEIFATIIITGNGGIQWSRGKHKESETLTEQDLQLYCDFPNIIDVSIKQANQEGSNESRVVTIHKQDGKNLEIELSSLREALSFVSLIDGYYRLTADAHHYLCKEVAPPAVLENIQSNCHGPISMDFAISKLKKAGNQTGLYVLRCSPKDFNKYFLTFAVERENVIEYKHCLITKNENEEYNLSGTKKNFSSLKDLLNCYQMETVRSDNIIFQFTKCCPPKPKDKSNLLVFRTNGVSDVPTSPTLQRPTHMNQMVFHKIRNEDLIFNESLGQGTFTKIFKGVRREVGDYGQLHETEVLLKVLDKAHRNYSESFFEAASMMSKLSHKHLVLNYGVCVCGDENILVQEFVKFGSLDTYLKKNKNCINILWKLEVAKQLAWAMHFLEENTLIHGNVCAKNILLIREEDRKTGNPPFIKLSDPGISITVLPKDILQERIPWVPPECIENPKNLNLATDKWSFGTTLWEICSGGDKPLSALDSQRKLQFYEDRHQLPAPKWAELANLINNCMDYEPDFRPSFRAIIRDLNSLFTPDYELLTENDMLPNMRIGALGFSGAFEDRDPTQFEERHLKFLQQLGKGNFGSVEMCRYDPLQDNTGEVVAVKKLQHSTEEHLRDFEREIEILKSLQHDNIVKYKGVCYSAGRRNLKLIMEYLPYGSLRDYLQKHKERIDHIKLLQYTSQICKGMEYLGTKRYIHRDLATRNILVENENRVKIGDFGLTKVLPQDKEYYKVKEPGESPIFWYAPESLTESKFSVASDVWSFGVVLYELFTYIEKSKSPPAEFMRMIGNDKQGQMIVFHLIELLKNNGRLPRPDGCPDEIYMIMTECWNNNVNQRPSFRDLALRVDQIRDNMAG
In short: as §1

[4] = target: T4, JAK1 (Homo sapiens, UniProt P23458); assay: Kinobeads assay with immunodetection, JAK1; conditions: for IC50: Kinobeads assay, mixed Molt4/Ramos lysate, read-out: Inhibition values (IC50) JAK1
T4 construct: endogenous in cells; host or cells: Molt4 (ATCC CRL-1582) and Ramos (ATCC CRL-1596) cells; mixed lysate 1:2
T4 sequence (P23458 whole entry): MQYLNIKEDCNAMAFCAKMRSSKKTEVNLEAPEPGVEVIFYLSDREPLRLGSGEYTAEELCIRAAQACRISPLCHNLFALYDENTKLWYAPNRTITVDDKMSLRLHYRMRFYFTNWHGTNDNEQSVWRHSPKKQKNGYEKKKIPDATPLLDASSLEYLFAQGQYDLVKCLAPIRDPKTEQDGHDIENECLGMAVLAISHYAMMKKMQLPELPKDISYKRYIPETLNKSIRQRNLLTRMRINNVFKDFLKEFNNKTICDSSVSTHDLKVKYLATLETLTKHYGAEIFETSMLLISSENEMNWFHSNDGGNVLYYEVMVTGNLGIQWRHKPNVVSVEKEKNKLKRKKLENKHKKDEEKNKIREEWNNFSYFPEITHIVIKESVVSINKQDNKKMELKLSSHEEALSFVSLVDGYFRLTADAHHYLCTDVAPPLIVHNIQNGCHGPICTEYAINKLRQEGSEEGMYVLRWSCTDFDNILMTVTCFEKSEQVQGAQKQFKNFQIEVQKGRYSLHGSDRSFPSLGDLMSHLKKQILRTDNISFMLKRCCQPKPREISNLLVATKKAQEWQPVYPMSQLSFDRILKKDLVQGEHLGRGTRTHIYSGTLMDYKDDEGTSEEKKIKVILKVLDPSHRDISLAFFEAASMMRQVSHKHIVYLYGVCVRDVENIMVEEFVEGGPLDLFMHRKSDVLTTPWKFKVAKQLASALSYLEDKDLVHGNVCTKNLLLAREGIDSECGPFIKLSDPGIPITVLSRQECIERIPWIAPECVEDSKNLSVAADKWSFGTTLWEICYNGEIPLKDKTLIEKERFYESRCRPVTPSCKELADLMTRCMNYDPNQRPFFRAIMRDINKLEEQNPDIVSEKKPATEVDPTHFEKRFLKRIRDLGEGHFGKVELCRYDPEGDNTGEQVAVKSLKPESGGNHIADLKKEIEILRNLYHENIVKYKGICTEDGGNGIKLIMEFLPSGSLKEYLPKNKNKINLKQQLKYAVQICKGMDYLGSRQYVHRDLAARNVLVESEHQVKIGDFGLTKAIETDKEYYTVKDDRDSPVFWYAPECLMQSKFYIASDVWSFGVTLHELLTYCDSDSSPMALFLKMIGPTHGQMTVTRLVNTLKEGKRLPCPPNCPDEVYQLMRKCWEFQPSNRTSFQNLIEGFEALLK
In short: as §1

CN(C)C(=O)Cn1cc(Nc2ncc(Cl)c(NC[C@H]3CCCN3S(C)(=O)=O)n2)cn1 [Example 68, (R)-2-(4-(5-chloro-4-((1-(methylsulfonyl)pyrrolidin-2-yl)methylamino)pyrimidin-2-ylamino)-1H-pyrazol-1-yl)-N,N-dimethylacetamide]
IC50 [1]: < 100 nM
Selectivity ratio over JAK2, Tyk2 [1]: Tyk2 = 13
IC50 [2]: < 100 nM
IC50 [3]: < 100 nM
IC50 [4]: < 100 nM

CN(C)C(=O)Cn1cc(Nc2ncc(Cl)c(NC[C@@H]3CCCN3S(C)(=O)=O)n2)cn1 [Example 69, (S)-2-(4-(5-chloro-4-((1-(methylsulfonyl)pyrrolidin-2-yl)methylamino)pyrimidin-2-ylamino)-1H-pyrazol-1-yl)-N,N-dimethylacetamide]
IC50 [1]: < 100 nM
Selectivity ratio over JAK2, JAK3 [2]: JAK3 = 44
IC50 [2]: < 100 nM
IC50 [3]: 100 to 1000 nM
IC50 [4]: < 100 nM

Cn1cc(Nc2ncc(F)c(NC[C@H]3CCCN3)n2)cn1 [Example 70, (R)-5-fluoro-N^2-(1-methyl-1H-pyrazol-4-yl)-N^4-(pyrrolidin-2-ylmethyl)pyrimidine-2,4-diamine Hydrochloride]
IC50 [1]: > 10000 nM
IC50 [2]: > 10000 nM
IC50 [3]: > 10000 nM
IC50 [4]: 1000 to 10000 nM

Cn1cc(Nc2ncc(F)c(NC[C@@H]3CCCN3)n2)cn1 [Example 71, (S)-5-fluoro-N^2-(1-methyl-1H-pyrazol-4-yl)-N^4-(pyrrolidin-2-ylmethyl)pyrimidine-2,4-diamine Hydrochloride]
IC50 [1]: 1000 to 10000 nM
IC50 [2]: > 10000 nM
IC50 [3]: > 10000 nM
IC50 [4]: 1000 to 10000 nM

Cc1cnc(Nc2cnn(C)c2)nc1NC[C@H]1CCCN1 [Example 72, (R)-5-methyl-N^2-(1-methyl-1H-pyrazol-4-yl)-N^4-(pyrrolidin-2-ylmethyl)pyrimidine-2,4-diamine Hydrochloride]
IC50 [1]: > 10000 nM
IC50 [2]: > 10000 nM
IC50 [3]: > 10000 nM
IC50 [4]: 1000 to 10000 nM

Cc1cnc(Nc2cnn(C)c2)nc1NC[C@@H]1CCCN1 [Example 73, (S)-5-methyl-N^2-(1-methyl-1H-pyrazol-4-yl)-N^4-(pyrrolidin-2-ylmethyl)pyrimidine-2,4-diamine Hydrochloride]
IC50 [1]: 1000 to 10000 nM
IC50 [2]: 1000 to 10000 nM
IC50 [3]: > 10000 nM
IC50 [4]: 1000 to 10000 nM

Cl.Cn1cc(Nc2ncc(F)c(NC[C@H]3CCCN3S(C)(=O)=O)n2)cn1 [Example 74, (R)-5-fluoro-N^2-(1-methyl-1H-pyrazol-4-yl)-N^4-((1-(methylsulfonyl)pyrrolidin-2-yl)methyl)pyrimidine-2,4-diamine Hydrochloride]
IC50 [1]: < 100 nM
Selectivity ratio over JAK2, Tyk2 [1]: Tyk2 = 50
IC50 [2]: 100 to 1000 nM
IC50 [3]: 1000 to 10000 nM
IC50 [4]: 100 to 1000 nM

Cl.Cn1cc(Nc2ncc(F)c(NC[C@@H]3CCCN3S(C)(=O)=O)n2)cn1 [Example 75, (S)-5-fluoro-N2-(1-methyl-1H-pyrazol-4-yl)-N4-((1-(methylsulfonyl)pyrrolidin-2-yl)methyl)pyrimidine-2,4-diamine Hydrochloride]
IC50 [1]: < 100 nM
Selectivity ratio over JAK2, Tyk2 [1]: Tyk2 = 28
IC50 [2]: 100 to 1000 nM
IC50 [3]: 1000 to 10000 nM
IC50 [4]: < 100 nM

Cc1cnc(Nc2cnn(C)c2)nc1NC[C@H]1CCCN1S(C)(=O)=O [Example 76, (R)-5-methyl-N^2-(1-methyl-1H-pyrazol-4-yl)-N^4-((1-(methylsulfonyl)pyrrolidin-2-yl)methyl)pyrimidine-2,4-diamine]
IC50 [1]: < 100 nM
IC50 [2]: < 100 nM
IC50 [3]: 100 to 1000 nM
Selectivity ratio over JAK2, JAK1 [4]: JAK1 = 26
IC50 [4]: < 100 nM

Cc1cnc(Nc2cnn(C)c2)nc1NC[C@@H]1CCCN1S(C)(=O)=O [Example 77, (S)-5-methyl-N^2-(1-methyl-1H-pyrazol-4-yl)-N^4-((1-(methylsulfonyl)pyrrolidin-2-yl)methyl)pyrimidine-2,4-diamine]
IC50 [1]: < 100 nM
IC50 [2]: < 100 nM
IC50 [3]: 100 to 1000 nM
Selectivity ratio over JAK2, JAK1 [4]: JAK1 = 28
IC50 [4]: < 100 nM

CN1C(=O)CCC1CNc1nc(Nc2cnn(C)c2)ncc1Cl (stereo not shown) [Example 78, 5-(((5-chloro-2-((1-methyl-1H-pyrazol-4-yl)amino)pyrimidin-4-yl)amino)methyl)-1-methylpyrrolidin-2-one]
IC50 [1]: 100 to 1000 nM
IC50 [2]: 1000 to 10000 nM
IC50 [3]: 1000 to 10000 nM
Selectivity ratio over JAK2, JAK1 [4]: JAK1 = 38
IC50 [4]: 100 to 1000 nM

Cn1cc(Nc2ncc(Cl)c(NC[C@H]3CCCN3CCC(F)(F)F)n2)cn1 [Example 80, (R)-5-chloro-N^2-(1-methyl-1H-pyrazol-4-yl)-N^4-((1-(3,3,3-trifluoropropyl)pyrrolidin-2-yl)methyl)pyrimidine-2,4-diamine]
IC50 [1]: < 100 nM
Selectivity ratio over JAK2, Tyk2 [1]: Tyk2 = 33
IC50 [2]: 100 to 1000 nM
IC50 [3]: < 100 nM
IC50 [4]: < 100 nM

Cn1cc(Nc2ncc(Cl)c(NC[C@@H]3CCCN3CCC#N)n2)cn1 [Example 81, (S)-3-(2-(((5-chloro-2-((1-methyl-1H-pyrazol-4-yl)amino)pyrimidin-4-yl)amino)methyl)pyrrolidin-1-yl)propanenitrile]
IC50 [1]: < 100 nM
Selectivity ratio over JAK2, Tyk2 [1]: Tyk2 = 11
IC50 [2]: 100 to 1000 nM
IC50 [3]: < 100 nM
IC50 [4]: < 100 nM

Cn1cc(Nc2ncc(Cl)c(NC[C@@H]3CCCN3CCS(C)(=O)=O)n2)cn1 [Example 82, (S)-5-chloro-N^2-(1-methyl-1H-pyrazol-4-yl)-N^4-((1-(2-(methylsulfonyl)ethyl)pyrrolidin-2-yl)methyl)pyrimidine-2,4-diamine]
IC50 [1]: < 100 nM
IC50 [2]: 100 to 1000 nM
IC50 [3]: < 100 nM
Selectivity ratio over JAK2, JAK1 [4]: JAK1 = 34
IC50 [4]: < 100 nM

CC(C)NC(=O)Cn1cc(Nc2nccc(NC[C@H]3CCCN3CCC#N)n2)cn1 [Example 83, (R)-2-(4-((4-(((1-(2-cyanoethyl)pyrrolidin-2-yl)methyl)amino)pyrimidin-2-yl)amino)-1H-pyrazol-1-yl)-N-isopropylacetamide]
IC50 [1]: < 100 nM
Selectivity ratio over JAK2, Tyk2 [1]: Tyk2 = 650
IC50 [2]: 1000 to 10000 nM
IC50 [3]: > 10000 nM
IC50 [4]: 1000 to 10000 nM

CC(C)NC(=O)Cn1cc(Nc2nccc(NC[C@H]3CCCN3CCS(C)(=O)=O)n2)cn1 [Example 84, (R)—N-isopropyl-2-(4-((4-(((1-(2-(methylsulfonyl)ethyl)pyrrolidin-2-yl)methyl)amino)pyrimidin-2-yl)amino)-1H-pyrazol-1-yl)acetamide]
IC50 [1]: < 100 nM
Selectivity ratio over JAK2, Tyk2 [1]: Tyk2 = 435
IC50 [2]: 100 to 1000 nM
IC50 [3]: > 10000 nM
IC50 [4]: 100 to 1000 nM

CS(=O)(=O)N1CC[C@H](CNc2nc(Nc3cnn(CCO)c3)ncc2Cl)C1 [Example 85, (R)-2-(4-((5-chloro-4-(((1-(methylsulfonyl)pyrrolidin-3-yl)methyl)amino)pyrimidin-2-yl)amino)-1H-pyrazol-1-yl)ethanol]
IC50 [1]: < 100 nM
IC50 [2]: 100 to 1000 nM
IC50 [3]: 100 to 1000 nM
Selectivity ratio over JAK2, JAK1 [4]: JAK1 = 27
IC50 [4]: < 100 nM

Cn1cc(Nc2ncc(Cl)c(NC[C@H]3CCCN3C(=O)CCC#N)n2)cn1 [Example 86, (R)-4-(2-(((5-chloro-2-((1-methyl-1H-pyrazol-4-yl)amino)pyrimidin-4-yl)amino)methyl)pyrrolidin-1-yl)-4-oxobutanenitrile]
IC50 [1]: < 100 nM
Selectivity ratio over JAK2, Tyk2 [1]: Tyk2 = 33
IC50 [2]: < 100 nM
IC50 [3]: 100 to 1000 nM
IC50 [4]: < 100 nM

Cn1cc(Nc2ncc(Cl)c(NCC3COCCN3CCS(C)(=O)=O)n2)cn1 (stereo not shown) [Example 87, 5-chloro-N^2-(1-methyl-1H-pyrazol-4-yl)-N^4-((4-(2-(methylsulfonyl)ethyl)morpholin-3-yl)methyl)pyrimidine-2,4-diamine]
IC50 [1]: 100 to 1000 nM
Selectivity ratio over JAK2, JAK3 [2]: JAK3 = 33
IC50 [2]: < 100 nM
IC50 [3]: 1000 to 10000 nM
IC50 [4]: 100 to 1000 nM
